Molecules are shown by their SMILES. Counter-ions that a name gives are not always drawn.

The assay deals with T1, human GPR40 (Homo sapiens, UniProt O14842).
T1 construct: expressed in transfected cells; host or cells: CHO cell line stably expressing human GPR40
T1 sequence (O14842 whole entry): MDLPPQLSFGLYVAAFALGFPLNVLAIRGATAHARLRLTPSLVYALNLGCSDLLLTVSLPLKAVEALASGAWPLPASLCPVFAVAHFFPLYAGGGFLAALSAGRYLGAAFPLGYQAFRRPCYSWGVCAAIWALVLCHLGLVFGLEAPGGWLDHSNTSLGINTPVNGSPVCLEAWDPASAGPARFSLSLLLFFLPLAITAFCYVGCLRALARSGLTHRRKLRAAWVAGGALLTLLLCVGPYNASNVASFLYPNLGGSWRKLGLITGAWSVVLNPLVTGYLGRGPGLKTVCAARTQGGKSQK
In words: Determination of EC50 for human GPR40: intracellular calcium change by FLIPR in CHO cells stably expressing human GPR40. The class given is cell-based. The note with it: CHO cell line stably expressing human GPR40, changes in intracellular calcium concentration, Fluo3-AM, read-out: EC50 (Receptor Function Modulating Action On GPR40). As for the experimental part:
Determination of EC50 of the Compound of the Present Invention for Human GPR40
For determination of EC50, CHO cell line that stably expressed human GPR40 was used. Unless otherwise indicated, the CHO cell line was cultured using α-MEM medium (Invitrogen) containing 10% fetal calf serum (Invitrogen).
The cells cultured to nearly confluent were rinsed with PBS (Invitrogen) on the previous day of the assay, peeled off with 0.05% Trypsin-EDTA solution (Invitrogen) and recovered by centrifugation. The number of the obtained cells was counted, and the cells were diluted such that 3×10^5 cells were contained per 1 mL of the medium, dispensed to a black welled 96-well plate (coster) by 100 μL per well and cultured overnight in a CO2 incubator. Various test compounds were added to the CHO cells thus prepared, and the changes in the intracellular calcium concentration were measured using FLIPR (Molecular Device). The below-mentioned pre-treatment was applied to measure changes in the intracellular calcium concentration by FLIPR.
First, an assay buffer for adding a fluorescence dye Fluo3-AM (DOJIN) to the cells, or for washing the cells immediately before FLIPR assay was prepared. To a solution of HBSS (Invitrogen, 1000 mL) to which 1M HEPES (pH 7.4, DOJIN, 20 mL) added (hereinafter HBSS/HEPES solution) was added a solution (10 mL) obtained by dissolving probenecid (Sigma, 710 mg) in 1N NaOH (5 mL), and adding and mixing an HBSS/HEPES solution (5 mL), and the resulting solution was used as an assay buffer. Next, Fluo3-AM (50 μg) was dissolved in dimethylsulfoxide (Wako, 21 μL), and an equivalent amount of 20% pluronic acid (Molecular Probes) was added and mixed. The solution was added to the assay buffer (10.6 mL) supplemented with fetal vovine serum (105 μL) to give a fluorescence dye solution. The medium of the CHO cells inoculated to the black welled 96-well plate on the previous day of assay was removed, the fluorescence dye solution was immediately dispensed by 100 μL per well and the cells were cultured in a CO2 incubator for 1 hr to allow intake of the fluorescence dye by the cells. The cells after the culture were washed with the above-mentioned assay buffer and set on FLIPR. The test compound was diluted with dimethylsulfoxide in advance, dispensed to polypropylene 96-well plate (sample plate) by […], and cryopreserved at −20° C. To the thawed sample plate was added an assay buffer containing 0.015% CHAPS (DOJIN) by 198 μL, and simultaneously set on FLIPR together with the cell plate. After the aforementioned pre-treatment, changes in the intracellular calcium concentration upon addition of various test compounds as measured by FLIPR. Based on the results, a dose-response curve of each test compound was formed and EC50 was calculated.
Usually EC50 stands for the concentration at which the effect is half-maximal. Regarding `CC(C)(C)c1cc(COc2ccccc2)n(Cc2ccc(CNc3ccc(CCC(=O)O)c(F)c3)cc2)n1` [Example 169, 3-{4-[(4-{[3-tert-butyl-5-(phenoxymethyl)-1H-pyrazol-1-yl]methyl}benzyl)amino]-2-fluorophenyl}propanoic acid dimethanesulfonate], the concentration giving a half-maximal response (EC50) was below 100 nM. Under `CCN(CC)C(=O)COc1cc(C)c(-c2cccc(CNc3ccc(CCC(=O)O)c(F)c3)c2)c(C)c1` [Example 98, 3-{4-[({4′-[2-(diethylamino)-2-oxoethoxy]-2′,6′-dimethylbiphenyl-3-yl}methyl)amino]-2-fluorophenyl}propanoic acid] stands below 100 nM. As for `O=C(O)CCc1ccc(NCc2ccc(Cn3nc(-c4ccccc4)cc3-c3ccccc3)cc2)cc1` [Example 44, 3-[4-({4-[(3,5-diphenyl-1H-pyrazol-1-yl)methyl]benzyl}amino)phenyl]propanoic acid], the figure is below 100 nM; as for `Cc1cc(OCCCN2CCCC2=O)cc(C)c1-c1cccc(CNc2ccc(CCC(=O)O)c(F)c2)c1` [Example 149, 3-{4-[({2′,6′-dimethyl-4′-[3-(2-oxopyrrolidin-1-yl)propoxy]biphenyl-3-yl}methyl)amino]-2-fluorophenyl}propanoic acid benzenesulfonate], below 100 nM; as for `CCOCCOc1ccc(-c2cc(CNc3ccc(CCC(=O)O)cc3)ccc2OCc2ccccc2)cc1` [Example 70, 3-[4-({[6-(benzyloxy)-4′-(2-ethoxyethoxy)biphenyl-3-yl]methyl}amino)phenyl]propanoic acid], below 100 nM.

On to `COc1cccc(Oc2cc(C)c(-c3cccc(CNc4ccc(CCC(=O)O)c(F)c4)c3)c(C)c2)n1` [Example 164, 3-{2-fluoro-4-[({4′-[(6-methoxypyridin-2-yl)oxy]-2′,6′-dimethylbiphenyl-3-yl}methyl)amino]phenyl}propanoic acid dihydrochloride], for which the concentration for a half-maximal effect (EC50) was below 100 nM.

For the compound `CCOCCOc1cc(C)c(-c2cccc(CNc3ccc(CCC(=O)O)cc3)c2)c(C)c1` [Example 37, 3-[4-({[4′-(2-ethoxyethoxy)-2′,6′-dimethylbiphenyl-3-yl]methyl}amino)phenyl]propanoic acid hydrochloride], the 50% effective concentration (EC50) is below 100 nM. Under `CCN(CCOc1cc(C)c(-c2cccc(CNc3ccc(CCC(=O)O)c(F)c3)c2)c(C)c1)C(C)=O` [Example 200, 3-(4-{[(4′-{2-[acetyl(ethyl)amino]ethoxy}-2′,6′-dimethylbiphenyl-3-yl)methyl]amino}-2-fluorophenyl)propanoic acid methanesulfonate] stands below 100 nM. As for `CC(C)(C)c1cc(CCc2ccccc2)n(Cc2ccc(CNc3ccc(CCC(=O)O)c(F)c3)cc2)n1` [Example 113, 3-{4-[(4-{[3-tert-butyl-5-(2-phenylethyl)-1H-pyrazol-1-yl]methyl}benzyl)amino]-2-fluorophenyl}propanoic acid methanesulfonate], the figure is below 100 nM; as for `O=C(O)CCc1ccc(NCc2ccc(CN(CCc3ccccc3)c3nc(-c4ccccc4)cs3)cc2)cc1` [Example 18, 3-{4-[(4-{[(2-phenylethyl)(4-phenyl-1,3-thiazol-2-yl)amino]methyl}benzyl)amino]phenyl}propanoic acid], below 100 nM; as for `CCOCCOc1cc(C)c(-c2cccc(CNc3ccc(CCC(=O)O)cn3)c2)c(C)c1` [Example 120, 3-[6-({[4′-(2-ethoxyethoxy)-2′,6′-dimethylbiphenyl-3-yl]methyl}amino)pyridin-3-yl]propanoic acid methanesulfonate], below 100 nM.

For the compound `Cc1cccc(C)c1-c1cccc2c1CCC2Nc1ccc(CCC(=O)O)c(F)c1` (stereo not drawn) [Example 218, 3-(4-{[4-(2,6-dimethylphenyl)-2,3-dihydro-1H-inden-1-yl]amino}-2-fluorophenyl)propanoic acid], the EC50 is below 100 nM. For `CC(C)(C)c1cc(-c2ccccc2)n(Cc2ccc(CNc3ccc(CCC(=O)O)c(F)c3)cc2)n1` [Example 107, 3-[4-({4-[(3-tert-butyl-5-phenyl-1H-pyrazol-1-yl)methyl]benzyl}amino)-2-fluorophenyl]propanoic acid], the 50% effective concentration (EC50) was below 100 nM. As for `CCOCCOc1ccc(-c2cc(CNc3ccc(CCC(=O)O)cc3)ccc2OC(C)C)cc1` [Example 127, 3-[4-({[4′-(2-ethoxyethoxy)-6-isopropoxybiphenyl-3-yl]methyl}amino)phenyl]propanoic acid], the figure is below 100 nM. As for `CCOCCOc1cc(C)c(-c2cccc(CNc3ccc(OCC(=O)O)cc3)c2)c(C)c1` [Example 67, [4-({[4′-(2-ethoxyethoxy)-2′,6′-dimethylbiphenyl-3-yl]methyl}amino)phenoxy]acetic acid], the figure is below 100 nM.
